Experimental data published in ChEMBL document CHEMBL3045962, “Synthesis and antitumor evaluation of some novel pyrrolizine derivatives” (Med Chem Res, 2012).

tested on: MCF7; assay: Cytotoxicity against Homo sapiens (human) MCF7 cells after 48 hr by neutral red assay; assay type: functional, cell-based

SMILES | IC50 [µM]
O=C1NC=NC2C1=C1CCCN1C2(O)N1CCOCC1 (stereo not drawn) | 30
N#CC1=C2CCCN2C(O)(N2CCOCC2)C1N1C(=O)CSC1c1ccc([N+](=O)[O-])cc1 (stereo not drawn) | 55
N#CC1=C2CCCN2C(O)(N2CCOCC2)C1NC(=O)Nc1ccccc1 (stereo not drawn) | 44
CCOC(=O)NC1=NC=NC2C1=C1CCCN1C2(O)N1CCOCC1 (stereo not drawn) | 25
CC1=NC2C(=C3CCCN3C2(O)N2CCOCC2)C(=O)N1 (stereo not drawn) | 36
COc1cccc2c1C(=O)c1c(O)c3c(c(O)c1C2=O)C[C@@](O)(C(=O)CO)C[C@@H]3O[C@H]1C[C@H](N)[C@H](O)[C@H](C)O1 [DOXORUBICIN] | 63
CC(=O)NC1=NC=NC2C1=C1CCCN1C2(O)N1CCOCC1 (stereo not drawn) | 29
N#CC1=C2CCCN2C(O)(N2CCOCC2)C1NC(=O)c1ccccc1 (stereo not drawn) | 34
N#CC1=C2CCCN2C(O)(N2CCOCC2)C1/N=C/N (stereo not drawn) | 26
CC(=O)C1=C(N)C2=C3CCCN3C(O)(N3CCOCC3)C2NC1=O (stereo not drawn) | 29
N=C1C2=C3CCCN3C(O)(N3CCOCC3)C2NC(=O)N1c1ccccc1 (stereo not drawn) | 18
N#CC1=C2CCCN2C(O)(N2CCOCC2)C1NC(=O)CCl (stereo not drawn) | 23
O=C(NC1=NC=NC2C1=C1CCCN1C2(O)N1CCOCC1)c1ccccc1 (stereo not drawn) | 21
C/C(CC(=O)c1ccccc1)=N\C1C(C#N)=C2CCCN2C1(O)N1CCOCC1 (stereo not drawn) | 28
CC(=O)C/C(C)=N/C1C(C#N)=C2CCCN2C1(O)N1CCOCC1 (stereo not drawn) | 42
O=C1NC(NNC(=O)c2ccccc2)=NC2C1=C1CCCN1C2(O)N1CCOCC1 (stereo not drawn) | 19
CC(=O)NC1C(C#N)=C2CCCN2C1(O)N1CCOCC1 (stereo not drawn) | 29
CC(=O)C1=C(N)C2=C3CCCN3C(O)(N3CCOCC3)C2N=C1C (stereo not drawn) | 38
N#CC1=C2CCCN2C(O)(N2CCOCC2)C1/N=C/c1ccc(Cl)cc1 (stereo not drawn) | 45

SMILES | IC50 [µM]
NC1=NC=NC2C1=C1CCCN1C2(O)N1CCOCC1 (stereo not drawn) | 35
COc1ccc(C2SCC(=O)N2C2C(C#N)=C3CCCN3C2(O)N2CCOCC2)cc1 (stereo not drawn) | 35
CN(C)c1ccc(C2SCC(=O)N2C2C(C#N)=C3CCCN3C2(O)N2CCOCC2)cc1 (stereo not drawn) | 19
COc1ccc(/C=N/C2C(C#N)=C3CCCN3C2(O)N2CCOCC2)cc1 (stereo not drawn) | 16
N#CC1=C2CCCN2C(O)(N2CCOCC2)C1N1C(=O)CSC1c1ccc(Cl)cc1 (stereo not drawn) | 18
CN(C)c1ccc(/C=N/C2C(C#N)=C3CCCN3C2(O)N2CCOCC2)cc1 (stereo not drawn) | 37
N#CC1=C2CCCN2C(O)(N2CCOCC2)C1/N=C/c1ccc([N+](=O)[O-])cc1 (stereo not drawn) | 19
N=C1C2=C3CCCN3C(O)(N3CCOCC3)C2NC(=O)N1c1ccc(Cl)cc1 (stereo not drawn) | 37
O=C1NC(c2ccccc2)=NC2C1=C1CCCN1C2(O)N1CCOCC1 (stereo not drawn) | 16
CCOC=NC1C(C#N)=C2CCCN2C1(O)N1CCOCC1 (stereo not drawn) | 41
O=C(CCl)NC1=NC=NC2C1=C1CCCN1C2(O)N1CCOCC1 (stereo not drawn) | 23
N#CC1=C2CCCN2C(O)(N2CCOCC2)C1/N=C/NNC(=O)c1ccccc1 (stereo not drawn) | 18
O=C1NC(NNC(=O)c2ccncc2)=NC2C1=C1CCCN1C2(O)N1CCOCC1 (stereo not drawn) | 20
CCOC(=O)NC1C(C#N)=C2CCCN2C1(O)N1CCOCC1 (stereo not drawn) | 27
CC(=O)CC(=O)NC1C(C#N)=C2CCCN2C1(O)N1CCOCC1 (stereo not drawn) | 22
N#CC1=C2CCCN2C(O)(N2CCOCC2)C1/N=C/NNC(=O)c1ccncc1 (stereo not drawn) | 29
CCNC(=S)NC1C(C#N)=C2CCCN2C1(O)N1CCOCC1 (stereo not drawn) | 37
N#CC1=C2CCCN2C(O)(N2CCOCC2)C1N (stereo not drawn) | 35
CCN1C(=N)C2=C3CCCN3C(O)(N3CCOCC3)C2NC1=S (stereo not drawn) | 34
